Reference: US10448639B2, “Fungicidal pyrazoles” (FMC CORPORATION, priority 2009, dated 2019)
Marks after values point to notes of the source that are not given here.

Key:
Septoria nodorum = test: Test F: Septoria glume blotch, preventive spray on wheat seedlings, visual disease rating; conditions: for pest or weed control at 200 µg/mL: Parastagonospora nodorum, in Triticum aestivum, 192 h, read-out: Test F rating (% disease control); for Test F disease control rating / Test F rating (% disease control): 100 = 100% disease control; for Test F disease control rating: 0 = no disease control relative to controls
[1] = system: Puccinia recondita f. sp. tritici; test: Test I: wheat leaf rust, preventive spray on wheat seedlings, visual disease rating; conditions: for pest or weed control at 200 µg/mL: 192 h, read-out: Test I rating (% disease control); for Test I disease control rating: sprayed the day before inoculation, 0 = no disease control relative to controls; for Test I disease control rating / Test I rating (% disease control): 100 = 100% disease control
[2] = system: Erysiphe graminis f sp. tritici; test: Test J: wheat powdery mildew, preventive spray on wheat seedlings, visual disease rating; conditions: for pest or weed control at 200 µg/mL: Blumeria graminis, in Triticum aestivum, 192 h, read-out: Test J rating (% disease control); for Test J disease control rating: sprayed the day before inoculation, 0 = no disease control relative to controls; for Test J disease control rating / Test J rating (% disease control): 100 = 100% disease control
Alternaria solani = test: Test C: tomato early blight, preventive spray on tomato seedlings, visual disease rating; conditions: for pest or weed control at 200 µg/mL: Alternaria solani, in Solanum lycopersicum, 168 h, read-out: Test C rating (% disease control); for Test C disease control rating / Test C rating (% disease control): 100 = 100% disease control; for Test C disease control rating: 0 = no disease control relative to controls
Septoria tritici = test: Test G: wheat leaf blotch, preventive spray on wheat seedlings, visual disease rating; conditions: for pest or weed control at 200 µg/mL: Zymoseptoria tritici, in Triticum aestivum, 504 h, read-out: Test G rating (% disease control); for Test G disease control rating: sprayed the day before inoculation, 0 = no disease control relative to controls; for Test G disease control rating / Test G rating (% disease control): 100 = 100% disease control
Text: General protocol for preparing test suspensions for Tests A-J: the test compounds were first dissolved in acetone in an amount equal to 3% of the final volume and then suspended at the desired concentration (in ppm) in acetone and purified water (50/50 mix by volume) containing 250 ppm of the surfactant Trem® 014 (polyhydric alcohol esters). The resulting test suspensions were then used in Tests A-J. Spraying a 200 ppm test suspension to the point of run-off on the test plants was the equivalent of a rate of 500 g/ha. Unless otherwise indicated, the rating values indicate a 200 ppm test suspension was used. (An asterisk “*” next to the rating value indicates a 40 ppm test suspension was used.)
The test suspension was sprayed to the point of run-off on wheat seedlings. The following day the seedlings were inoculated with a spore suspension of Septoria tritici (the causal agent of wheat leaf blotch) and incubated in saturated atmosphere at 24° C. for 48 h. and then the seedlings were moved to a growth chamber at 20° C. for 19 additional days, after which time visual disease ratings were made.

[3] = system: Puccinia recondita f. sp. tritici; test: Test H: wheat leaf rust, curative spray on inoculated wheat seedlings, visual disease rating; conditions: for pest or weed control at 200 µg/mL: 144 h, read-out: Test H rating (% disease control); for Test H disease control rating: sprayed after inoculation, 0 = no disease control relative to controls; for Test H disease control rating / Test H rating (% disease control): 100 = 100% disease control
Botrytis cinerea = test: Test B: tomato Botrytis, preventive spray on tomato seedlings, visual disease rating; conditions: for pest or weed control at 200 µg/mL: Botrytis cinerea, in Solanum lycopersicum, 120 h, read-out: Test B rating (% disease control); for Test B disease control rating / Test B rating (% disease control): 100 = 100% disease control; for Test B disease control rating: 0 = no disease control relative to controls
[4] = Septoria glume blotch, 0 = no control relative to controls
[5] = wheat leaf rust, preventive, 0 = no control relative to controls
[6] = wheat powdery mildew, 0 = no control relative to controls
[7] = tomato early blight, 0 = no control relative to controls
[8] = wheat leaf blotch, 0 = no control relative to controls
[9] = wheat leaf rust, curative, 0 = no control relative to controls
[10] = tomato Botrytis, 0 = no control relative to controls
[11] = Septoria glume blotch on wheat, preventive spray, 0 = no control
[12] = wheat leaf rust, preventive spray, 0 = no control
[13] = wheat powdery mildew, preventive spray, 0 = no control
[14] = tomato early blight, preventive spray, 0 = no control
[15] = wheat leaf blotch, preventive spray, 0 = no control
[16] = wheat leaf rust, curative spray, 0 = no control
[17] = tomato Botrytis, preventive spray, 0 = no control

Compound | Test F rating (% disease control) (Septoria nodorum; [4]) [%] | Test I rating (% disease control) [1, 5] [%] | Test J rating (% disease control) [2, 6] [%] | Test C rating (% disease control) (Alternaria solani; [7]) [%] | Test G rating (% disease control) (Septoria tritici; [8]) [%] | Test H rating (% disease control) [3, 9] [%] | Test B rating (% disease control) (Botrytis cinerea; [10]) [%] | Test F rating (% disease control) (Septoria nodorum; [11]) [%] | Test I rating (% disease control) [1, 12] [%] | Test J rating (% disease control) [2, 13] [%] | Test C rating (% disease control) (Alternaria solani; [14]) [%] | Test G rating (% disease control) (Septoria tritici; [15]) [%] | Test H rating (% disease control) [3, 16] [%] | Test B rating (% disease control) (Botrytis cinerea; [17]) [%] | also measured
Cc1nn(C)c(Oc2c(F)cc(C#N)cc2F)c1-c1ccc(F)cc1Cl [Compound 45, 4-[[4-(2-chloro-4-fluorophenyl)-1,3-dimethyl-1H-pyrazol-5-yl]oxy]-3,5-difluorobenzonitrile] | – | – | – | – | – | – | – | – | – | – | – | – | – | – | pest or weed control at 200 µg/mL (Septoria nodorum): 100%; pest or weed control at 200 µg/mL [1]: 100%; pest or weed control at 200 µg/mL [2]: 100%; pest or weed control at 200 µg/mL (Alternaria solani): 100%; pest or weed control at 200 µg/mL (Septoria tritici): 100%; pest or weed control at 200 µg/mL [3]: 7%; pest or weed control at 200 µg/mL (Botrytis cinerea): 100%
Cc1nn(C)c(Nc2ccc(F)cc2F)c1-c1ccccc1Cl [compound 315] | – | – | – | – | – | – | – | – | – | – | – | – | – | – | Test F disease control rating (Septoria nodorum; Septoria glume blotch on wheat): 0%; Test I disease control rating ([1]; wheat leaf rust): 96%; Test J disease control rating ([2]; wheat powdery mildew): 100%; Test C disease control rating (Alternaria solani; tomato early blight): 99%; Test G disease control rating (Septoria tritici; wheat leaf blotch): 100%; Test H disease control rating ([3]; wheat leaf rust): 0%; Test B disease control rating (Botrytis cinerea; tomato Botrytis): 99%
Cc1nn(C)c(Oc2c(F)cc(C#N)cc2F)c1-c1c(F)cc(F)cc1F [compound 31] | – | – | – | – | – | – | – | – | – | – | – | – | – | – | Test F rating (% disease control), value marked * (Septoria nodorum; Septoria glume blotch, preventive spray, rating marked with asterisk (different test condition, key not given)): 0* %; Test I rating (% disease control), value marked * ([1]; wheat leaf rust, preventive spray, rating marked with asterisk (different test condition, key not given)): 79* %; Test J rating (% disease control), value marked * ([2]; wheat powdery mildew, preventive spray, rating marked with asterisk (different test condition, key not given)): 60* %; Test C rating (% disease control), value marked * (Alternaria solani; tomato early blight, preventive spray, rating marked with asterisk (different test condition, key not given)): 98* %; Test G rating (% disease control), value marked * (Septoria tritici; wheat leaf blotch, preventive spray, rating marked with asterisk (different test condition, key not given)): 47* %; Test H rating (% disease control), value marked * ([3]; wheat leaf rust, curative spray, rating marked with asterisk (different test condition, key not given)): 15* %; Test B rating (% disease control), value marked * (Botrytis cinerea; tomato Botrytis, preventive spray, rating marked with asterisk (different test condition, key not given)): 99* %
Cc1nn(C)c(Nc2ccc(F)cc2F)c1-c1c(F)cccc1Cl [compound 177] | 73 | 83 | 100 | 100 | 98 | 0 | 100 | – | – | – | – | – | – | – | –
Cc1nn(C)c(Nc2cccc(Cl)c2Cl)c1-c1c(F)cc(C#N)cc1F [compound 147] | – | – | – | – | – | – | – | 100 | 98 | 92 | 88 | 100 | 0 | 99 | –
COc1cc(F)c(-c2c(C)nn(C)c2Nc2ccc(F)cc2C)c(F)c1 [compound 88] | – | – | – | – | – | – | – | 99 | 99 | 100 | 100 | 98 | 95 | 100 | –
COc1cc(F)c(-c2c(C)nn(C)c2Nc2ccc(F)cc2F)c(F)c1 [Compound 23, 4-(2,6-difluoro-4-methoxyphenyl)-N-(2,4-difluorophenyl)-1,3-dimethyl-1H-pyrazol-5-amine] | – | – | – | – | – | – | – | – | – | – | – | – | – | – | pest or weed control at 200 µg/mL (Septoria nodorum): 99%; pest or weed control at 200 µg/mL [1]: 100%; pest or weed control at 200 µg/mL [2]: 100%; pest or weed control at 200 µg/mL (Alternaria solani): 100%; pest or weed control at 200 µg/mL (Septoria tritici): 93%; pest or weed control at 200 µg/mL [3]: 92%; pest or weed control at 200 µg/mL (Botrytis cinerea): 98%
Cc1nn(C)c(Oc2ccc(Cl)c(C#N)c2)c1-c1c(F)cc(F)cc1F [compound 224] | 0 | 91 | 100 | 51 | 100 | 17 | 99 | – | – | – | – | – | – | – | –
COc1cc(F)c(-c2c(C)nn(C)c2Nc2cc(Cl)c(OC)cc2OC)c(F)c1 [compound 81] | – | – | – | – | – | – | – | 0 | 27 | 0 | 0 | 0 | 0 | 97 | –
Cc1nn(C)c(Nc2ccc(F)cc2)c1-c1ccc(F)cc1F [compound 194] | 0 | 91 | 99 | 86 | 99 | 0 | 97 | – | – | – | – | – | – | – | –
Cc1nn(C)c(Nc2cccc(F)c2F)c1-c1c(F)cc(C#N)cc1F [compound 145] | – | – | – | – | – | – | – | 100 | 100 | 100 | 98 | 100 | 88 | 96 | –
Cc1nn(C)c(Nc2cccc(F)c2)c1-c1c(F)cc(C#N)cc1F [compound 136] | – | – | – | – | – | – | – | 86 | 99 | 100 | 71 | 99 | 0 | 99 | –
COc1cc(F)c(Nc2c(-c3ccc(F)cc3Cl)c(C)nn2C)c(F)c1 [Compound 17, 4-(2-Chloro-4-fluorophenyl)-N-(2,6-difluoro-4-methoxyphenyl)-1,3-dimethyl-1H-pyrazol-5-amine] | – | – | – | – | – | – | – | – | – | – | – | – | – | – | pest or weed control at 200 µg/mL (Septoria nodorum): 93%; pest or weed control at 200 µg/mL [1]: 100%; pest or weed control at 200 µg/mL [2]: 100%; pest or weed control at 200 µg/mL (Alternaria solani): 100%; pest or weed control at 200 µg/mL (Septoria tritici): 97%; pest or weed control at 200 µg/mL [3]: 96%; pest or weed control at 200 µg/mL (Botrytis cinerea): 100%
COc1ccc(Nc2c(-c3c(F)cc(C#N)cc3F)c(C)nn2C)cc1F [compound 113] | – | – | – | – | – | – | – | 0 | 95 | 48 | 47 | 100 | 8 | 99 | –
COc1cc(Oc2c(-c3c(F)cc(F)cc3F)c(C)nn2C)ccc1C [compound 217] | 0 | 79 | 99 | 0 | 83 | 40 | 75 | – | – | – | – | – | – | – | –
COc1cc(F)c(-c2c(C)nn(C)c2Nc2ccc(Cl)cc2)c(F)c1 [Compound 22, N-(4-chlorophenyl)-4-(2,6-difluoro-4-methoxyphenyl)-1,3-dimethyl-1H-pyrazol-5-amine] | – | – | – | – | – | – | – | – | – | – | – | – | – | – | pest or weed control at 200 µg/mL (Septoria nodorum): 90%; pest or weed control at 200 µg/mL [1]: 94%; pest or weed control at 200 µg/mL [2]: 100%; pest or weed control at 200 µg/mL (Alternaria solani): 85%; pest or weed control at 200 µg/mL (Septoria tritici): 94%; pest or weed control at 200 µg/mL [3]: 9%; pest or weed control at 200 µg/mL (Botrytis cinerea): 90%
Cc1nn(C)c(Nc2ccc(F)cc2F)c1-c1ccc(F)cc1F [compound 230] | 0 | 97 | 100 | 99 | 100 | 0 | 99 | – | – | – | – | – | – | – | –
COc1cc(F)c(Nc2c(-c3ccccc3F)c(C)nn2C)c(F)c1 [compound 183] | 67 | 94 | 99 | 100 | 99 | 27 | 97 | – | – | – | – | – | – | – | –
Cc1nn(C)c(Nc2c(Cl)cc(F)cc2Br)c1-c1ccc(F)cc1F [compound 348] | – | – | – | – | – | – | – | – | – | – | – | – | – | – | Test F disease control rating (Septoria nodorum; Septoria glume blotch on wheat): 94%; Test I disease control rating ([1]; wheat leaf rust): 100%; Test J disease control rating ([2]; wheat powdery mildew): 100%; Test C disease control rating (Alternaria solani; tomato early blight): 80%; Test G disease control rating (Septoria tritici; wheat leaf blotch): 100%; Test H disease control rating ([3]; wheat leaf rust): 19%; Test B disease control rating (Botrytis cinerea; tomato Botrytis): 100%
